# Measurements reported in patent US12129235B2, “TSPO binders” (The University Court of the University of Glasgow, priority 2018, dated 2024).
# Test: Dosimetry from whole-body mouse PET, OLINDA/EXM adult human phantom
# Format: in vivo, mice
# Conditions: for Effective Dose / Estimated Absorbed Dose, Adrenals / Estimated Absorbed Dose, Brain / Estimated Absorbed Dose, Breasts / Estimated Absorbed Dose, Gallbladder Wall / Estimated Absorbed Dose, Heart Wall / Estimated Absorbed Dose, Kidneys / Estimated Absorbed Dose, LLI Wall / Estimated Absorbed Dose, Liver / Estimated Absorbed Dose, Lungs / Estimated Absorbed Dose, Muscle / Estimated Absorbed Dose, Osteogenic Cells / Estimated Absorbed Dose, Ovaries / Estimated Absorbed Dose, Pancreas / Estimated Absorbed Dose, Red Marrow / Estimated Absorbed Dose, Skin / Estimated Absorbed Dose, Small Intestine / Estimated Absorbed Dose, Spleen / Estimated Absorbed Dose, Stomach Wall / Estimated Absorbed Dose, Thymus / Estimated Absorbed Dose, Thyroid / Estimated Absorbed Dose, Total Body / Estimated Absorbed Dose, ULI Wall / Estimated Absorbed Dose, Urinary Bladder Wall / Estimated Absorbed Dose, Uterus / Estimated Absorbed Dose, Testes: adult human phantom
# Protocol: 13 PET scans were performed with ^18F-LW223 (mean injected radioactivity of 19.55±2.1 MBq). Scans were acquired following i.v. bolus injection of ^18F-LW223 via tail vein or femoral vein shunt (invasive kinetic modelling experiments with β-probe automatic blood sampler) in rats. Test-retest scans were obtained in three rats following i.v. bolus of the radiotracer, with two weeks interval between test and retest imaging sessions. […] These scans were compared to baseline scans where no PK11195 was used. For displacement studies, rats received i.v. administration of ^18F-LW223 and scanned continuously for 120 min. […] A male and female mouse were initially used to derive the dosimetry estimates for ^18F-LW223 over a 4 h dynamic scan, followed by additional mice in a further study (in a study with a mean injected radioactivity of 10.83±5.6 MBq).
# The following organs were identified as source organs: brain, heart, lungs, gallbladder, liver, gut, adrenals, kidneys and bladder. A whole-body VOI was drawn around the animal body and was used for quantification of whole-body remainder activity as whole-body activity minus source organs activity. At each time point, the measured activity of the source organs was expressed as the percent injected dose (% ID).
# The residence time T, defined as the ratio of accumulated activity in the target organ (A) and injected activity (A0); τ=Ā/A0, was calculated as the area under the curve of the tissue time-activity curve normalized to % ID from time zero to infinity. The trapezoidal method was used for estimating T and after the last measured time point, it was assumed that the radiotracer underwent only physical decay with no biological elimination from the source organ. Calculated T were normalized for differences in mouse and human organ weights as a percentage of total body weight (based on data known from Khanuja et al.; Bielohuby et al.; Stabin et al.; Hindorf et al.; and Hui et al.), and entered into OLINDA/EXM 1.0 software, which was used to estimate organ doses and effective doses according to the male or female model implemented in OLINDA/EXM 1.0.
# [1] = Female, additional work with further mice
# [2] = Male, additional work with further mice
compound,measurement,setting,value
"CC[C@@H](C)N(C)C(=O)c1nc2ccccc2c(-c2ccccc2)c1C[18F] [^18F-LW223, (R)-(N-sec-Butyl)-3-[19-fluoro]-methyl-N-methyl-4-phenylquinoline-2-carboxamide]",Effective Dose,[1],2.37E−02 mSv/MBq
same,"Estimated Absorbed Dose, Adrenals",[1],3.54E−02 mGy/MBq
same,"Estimated Absorbed Dose, Brain",[1],5.49E−03 mGy/MBq
same,"Estimated Absorbed Dose, Breasts",[1],8.51E−03 mGy/MBq
same,"Estimated Absorbed Dose, Gallbladder Wall",[1],2.40E−02 mGy/MBq
same,"Estimated Absorbed Dose, Heart Wall",[1],1.80E−02 mGy/MBq
same,"Estimated Absorbed Dose, Kidneys",[1],1.48E−02 mGy/MBq
same,"Estimated Absorbed Dose, LLI Wall",[1],8.94E−02 mGy/MBq
same,"Estimated Absorbed Dose, Liver",[1],1.88E−02 mGy/MBq
same,"Estimated Absorbed Dose, Lungs",[1],3.10E−02 mGy/MBq
same,"Estimated Absorbed Dose, Muscle",[1],9.70E−03 mGy/MBq
same,"Estimated Absorbed Dose, Osteogenic Cells",[1],1.52E−02 mGy/MBq
same,"Estimated Absorbed Dose, Ovaries",[1],1.63E−02 mGy/MBq
same,"Estimated Absorbed Dose, Pancreas",[1],1.25E−02 mGy/MBq
same,"Estimated Absorbed Dose, Red Marrow",[1],9.72E−03 mGy/MBq
same,"Estimated Absorbed Dose, Skin",[1],7.33E−03 mGy/MBq
same,"Estimated Absorbed Dose, Small Intestine",[1],1.29E−02 mGy/MBq
same,"Estimated Absorbed Dose, Spleen",[1],1.10E−02 mGy/MBq
same,"Estimated Absorbed Dose, Stomach Wall",[1],1.14E−02 mGy/MBq
same,"Estimated Absorbed Dose, Thymus",[1],1.06E−02 mGy/MBq
same,"Estimated Absorbed Dose, Thyroid",[1],8.89E−03 mGy/MBq
same,"Estimated Absorbed Dose, Total Body",[1],1.06E−02 mGy/MBq
same,"Estimated Absorbed Dose, ULI Wall",[1],1.24E−02 mGy/MBq
same,"Estimated Absorbed Dose, Urinary Bladder Wall",[1],1.49E−02 mGy/MBq
same,"Estimated Absorbed Dose, Uterus",[1],1.28E−02 mGy/MBq
same,Effective Dose,"Female, initial mouse study",1.84E−02 mSv/MBq
same,"Estimated Absorbed Dose, Adrenals","Female, initial mouse study",4.38E−02 mGy/MBq
same,"Estimated Absorbed Dose, Brain","Female, initial mouse study",8.38E−03 mGy/MBq
same,"Estimated Absorbed Dose, Breasts","Female, initial mouse study",1.16E−02 mGy/MBq
same,"Estimated Absorbed Dose, Gallbladder Wall","Female, initial mouse study",2.80E−02 mGy/MBq
same,"Estimated Absorbed Dose, Heart Wall","Female, initial mouse study",3.96E−02 mGy/MBq
same,"Estimated Absorbed Dose, Kidneys","Female, initial mouse study",2.67E−02 mGy/MBq
same,"Estimated Absorbed Dose, LLI Wall","Female, initial mouse study",1.61E−02 mGy/MBq
same,"Estimated Absorbed Dose, Liver","Female, initial mouse study",2.04E−02 mGy/MBq
same,"Estimated Absorbed Dose, Lungs","Female, initial mouse study",4.52E−02 mGy/MBq
same,"Estimated Absorbed Dose, Muscle","Female, initial mouse study",1.27E−02 mGy/MBq
same,"Estimated Absorbed Dose, Osteogenic Cells","Female, initial mouse study",2.01E−02 mGy/MBq
same,"Estimated Absorbed Dose, Ovaries","Female, initial mouse study",1.71E−02 mGy/MBq
same,"Estimated Absorbed Dose, Pancreas","Female, initial mouse study",1.68E−02 mGy/MBq
same,"Estimated Absorbed Dose, Red Marrow","Female, initial mouse study",1.25E−02 mGy/MBq
same,"Estimated Absorbed Dose, Skin","Female, initial mouse study",9.71E−03 mGy/MBq
same,"Estimated Absorbed Dose, Small Intestine","Female, initial mouse study",3.97E−02 mGy/MBq
same,"Estimated Absorbed Dose, Spleen","Female, initial mouse study",1.51E−02 mGy/MBq
same,"Estimated Absorbed Dose, Stomach Wall","Female, initial mouse study",1.54E−02 mGy/MBq
same,"Estimated Absorbed Dose, Thymus","Female, initial mouse study",1.47E−02 mGy/MBq
same,"Estimated Absorbed Dose, Thyroid","Female, initial mouse study",1.19E−02 mGy/MBq
same,"Estimated Absorbed Dose, Total Body","Female, initial mouse study",1.40E−02 mGy/MBq
same,"Estimated Absorbed Dose, ULI Wall","Female, initial mouse study",1.89E−02 mGy/MBq
same,"Estimated Absorbed Dose, Urinary Bladder Wall","Female, initial mouse study",1.51E−02 mGy/MBq
same,"Estimated Absorbed Dose, Uterus","Female, initial mouse study",1.67E−02 mGy/MBq
same,Effective Dose,[2],2.05E−02 mSv/MBq
same,"Estimated Absorbed Dose, Adrenals",[2],2.22E−02 mGy/MBq
same,"Estimated Absorbed Dose, Brain",[2],5.89E−03 mGy/MBq
same,"Estimated Absorbed Dose, Breasts",[2],7.18E−03 mGy/MBq
same,"Estimated Absorbed Dose, Gallbladder Wall",[2],2.01E−02 mGy/MBq
same,"Estimated Absorbed Dose, Heart Wall",[2],2.03E−02 mGy/MBq
same,"Estimated Absorbed Dose, Kidneys",[2],1.57E−02 mGy/MBq
same,"Estimated Absorbed Dose, LLI Wall",[2],7.82E−02 mGy/MBq
same,"Estimated Absorbed Dose, Liver",[2],1.30E−02 mGy/MBq
same,"Estimated Absorbed Dose, Lungs",[2],3.10E−02 mGy/MBq
same,"Estimated Absorbed Dose, Muscle",[2],8.04E−03 mGy/MBq
same,"Estimated Absorbed Dose, Osteogenic Cells",[2],1.20E−02 mGy/MBq
same,"Estimated Absorbed Dose, Pancreas",[2],1.03E−02 mGy/MBq
same,"Estimated Absorbed Dose, Red Marrow",[2],8.22E−03 mGy/MBq
same,"Estimated Absorbed Dose, Skin",[2],6.09E−03 mGy/MBq
same,"Estimated Absorbed Dose, Small Intestine",[2],1.11E−02 mGy/MBq
same,"Estimated Absorbed Dose, Spleen",[2],9.11E−03 mGy/MBq
same,"Estimated Absorbed Dose, Stomach Wall",[2],9.42E−03 mGy/MBq
same,"Estimated Absorbed Dose, Testes",[2],7.70E−03 mGy/MBq
same,"Estimated Absorbed Dose, Thymus",[2],8.97E−03 mGy/MBq
same,"Estimated Absorbed Dose, Thyroid",[2],7.90E−03 mGy/MBq
same,"Estimated Absorbed Dose, Total Body",[2],8.85E−03 mGy/MBq
same,"Estimated Absorbed Dose, ULI Wall",[2],9.96E−03 mGy/MBq
same,"Estimated Absorbed Dose, Urinary Bladder Wall",[2],1.16E−02 mGy/MBq
same,Effective Dose,"Male, initial mouse study",1.53E−02 mSv/MBq
same,"Estimated Absorbed Dose, Adrenals","Male, initial mouse study",3.72E−02 mGy/MBq
same,"Estimated Absorbed Dose, Brain","Male, initial mouse study",7.01E−03 mGy/MBq
same,"Estimated Absorbed Dose, Breasts","Male, initial mouse study",9.21E−03 mGy/MBq
same,"Estimated Absorbed Dose, Gallbladder Wall","Male, initial mouse study",2.42E−02 mGy/MBq
same,"Estimated Absorbed Dose, Heart Wall","Male, initial mouse study",3.07E−02 mGy/MBq
same,"Estimated Absorbed Dose, Kidneys","Male, initial mouse study",2.38E−02 mGy/MBq
same,"Estimated Absorbed Dose, LLI Wall","Male, initial mouse study",1.28E−02 mGy/MBq
same,"Estimated Absorbed Dose, Liver","Male, initial mouse study",1.56E−02 mGy/MBq
same,"Estimated Absorbed Dose, Lungs","Male, initial mouse study",3.57E−02 mGy/MBq
same,"Estimated Absorbed Dose, Muscle","Male, initial mouse study",1.02E−02 mGy/MBq
same,"Estimated Absorbed Dose, Osteogenic Cells","Male, initial mouse study",1.54E−02 mGy/MBq
same,"Estimated Absorbed Dose, Ovaries","Male, initial mouse study",1.40E−02 mGy/MBq
same,"Estimated Absorbed Dose, Pancreas","Male, initial mouse study",1.35E−02 mGy/MBq
same,"Estimated Absorbed Dose, Red Marrow","Male, initial mouse study",1.02E−02 mGy/MBq
same,"Estimated Absorbed Dose, Skin","Male, initial mouse study",7.82E−03 mGy/MBq
same,"Estimated Absorbed Dose, Small Intestine","Male, initial mouse study",3.38E−02 mGy/MBq
same,"Estimated Absorbed Dose, Spleen","Male, initial mouse study",1.19E−02 mGy/MBq
same,"Estimated Absorbed Dose, Stomach Wall","Male, initial mouse study",1.23E−02 mGy/MBq
same,"Estimated Absorbed Dose, Testes","Male, initial mouse study",9.46E−03 mGy/MBq
same,"Estimated Absorbed Dose, Thymus","Male, initial mouse study",1.16E−02 mGy/MBq
same,"Estimated Absorbed Dose, Thyroid","Male, initial mouse study",1.02E−02 mGy/MBq
same,"Estimated Absorbed Dose, Total Body","Male, initial mouse study",1.12E−02 mGy/MBq
same,"Estimated Absorbed Dose, ULI Wall","Male, initial mouse study",1.52E−02 mGy/MBq
same,"Estimated Absorbed Dose, Urinary Bladder Wall","Male, initial mouse study",1.37E−02 mGy/MBq
same,critical organ,additional work with further mice,lower intestinal wall
same,whole-body effective dose,"female phantom, additional work with further mice (Table 2)",23.7 μSv/MBq
same,whole-body effective dose,"female phantom, initial mouse study (Table 1)",18.4 μSv/MBq
same,critical organ,initial mouse study,adrenal gland
same,whole-body effective dose,"male phantom, additional work with further mice (Table 2)",20.5 μSv/MBq
same,whole-body effective dose,"male phantom, initial mouse study (Table 1)",15.3 μSv/MBq
